Test results as given in patent US20100298141A1, “SUBSTITUTED PYRIDINE N-OXIDE HERBICIDES” (E. I. DU PONT DE NEMOURS AND COMPANY, priority 2007, published 2010).

Legend:
Test in all cases: Test F preemergence test
bermudagrass = assay type: in vivo, Cynodon dactylon; settings: scale 0 to 100
Method in brief: (§1)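 Test chemicals were formulated in a non-phytotoxic solvent mixture with surfactant and applied preemergence to planted seeds or postemergence to sugarcane plants. Plants were kept in a greenhouse for 14 to 21 days, then visually evaluated against controls.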

Surinam grass = assay type: in vivo, Brachiaria decumbens; settings: scale 0 to 100
Method in brief: as §1

large crabgrass = assay type: in vivo, Digitaria sanguinalis; settings: scale 0 to 100
Method in brief: as §1

green foxtail = assay type: in vivo, Setaria viridis; settings: scale 0 to 100
Method in brief: as §1

pitted morningglory = assay type: in vivo, Ipomoea lacunosa; settings: scale 0 to 100
Method in brief: as §1

common ragweed = assay type: in vivo, Ambrosia elation; settings: scale 0 to 100
Method in brief: as §1

mustard = assay type: in vivo, Brassica nigra; settings: scale 0 to 100
Method in brief: as §1

guineagrass = assay type: in vivo, Panicum maximum; settings: scale 0 to 100
Method in brief: as §1

barnyardgrass = assay type: in vivo, Echinochloa crus-galli
Method in brief: as §1

southern sandbur = assay type: in vivo, Cenchrus echinatus; settings: scale 0 to 100
Method in brief: as §1

prickly sida = assay type: in vivo, Sida spinosa; settings: scale 0 to 100
Method in brief: as §1

Italian ryegrass = assay type: in vivo, Lolium multiflorum; settings: scale 0 to 100
Method in brief: as §1

common purslane = assay type: in vivo, Portulaca oleracea; settings: scale 0 to 100
Method in brief: as §1

common chickweed = assay type: in vivo, Stellaria media; settings: scale 0 to 100
Method in brief: as §1

annual bluegrass = assay type: in vivo, Poa annua; settings: scale 0 to 100
Method in brief: as §1

naked crabgrass = assay type: in vivo, Digitaria nuda; settings: scale 0 to 100
Method in brief: as §1

quackgrass = assay type: in vivo, Elytrigia repens; settings: scale 0 to 100
Method in brief: as §1

Canada horseweed = assay type: in vivo, Conyza canadensis; settings: scale 0 to 100
Method in brief: as §1

field bindweed = assay type: in vivo, Convolvulus arvensis; settings: scale 0 to 100
Method in brief: as §1

common mallow = assay type: in vivo, Malva sylvestris; settings: scale 0 to 100
Method in brief: as §1

CCn1nc(C(F)(F)F)c(CS(=O)(=O)c2cc(C)cc[n+]2[O-])c1OCC(F)(F)F [Compound 64] was tested. Which “Plant response rating, Bermudagrass” value (bermudagrass; 16 g ai/ha, preemergence) did it give?
Its value is 0.

What about the “Bermudagrass plant response rating” value (bermudagrass; 62 g ai/ha, Preemergence) of the same compound?
The value was 75.

And the “Bermudagrass plant response rating” value (bermudagrass; 125 g ai/ha, preemergence)?
The value was 90.

And the “Plant response rating, Bermudagrass” value (bermudagrass; Preemergence, 31 g ai/ha)?
The value was 25.

What about the “Plant response rating, Surinam Grass” value (Surinam grass; 16 g ai/ha, preemergence) of the same compound?
Its value is 10.

What about the “Surinam Grass plant response rating” value (Surinam grass; 125 g ai/ha, preemergence) of the same compound?
The value was 100.

And the “Plant response rating, Surinam Grass” value (Surinam grass; Preemergence, 62 g ai/ha)?
The value was 95.

What about the “Plant response rating, Surinam Grass” value (Surinam grass; Preemergence, 31 g ai/ha) of the same compound?
Its value is 90.

What about the “Plant response rating, Crabgrass, Large” value (large crabgrass; 16 g ai/ha, preemergence) of the same compound?
The value was 10.

And the “Crabgrass, Large plant response rating” value (large crabgrass; 62 g ai/ha, Preemergence)?
Its value is 75.

What about the “Crabgrass, Large plant response rating” value (large crabgrass; 125 g ai/ha, preemergence) of the same compound?
Its value is 95.

What about the “Plant response rating, Crabgrass, Large” value (large crabgrass; Preemergence, 31 g ai/ha) of the same compound?
Its value is 65.

And the “Plant response rating, Foxtail, Green” value (green foxtail; 16 g ai/ha, preemergence)?
Its value is 15.

And the “Foxtail, Green plant response rating” value (green foxtail; 62 g ai/ha, Preemergence)?
The value was 95.

And the “Foxtail, Green plant response rating” value (green foxtail; 125 g ai/ha, preemergence)?
Its value is 100.

And the “Plant response rating, Foxtail, Green” value (green foxtail; Preemergence, 31 g ai/ha)?
Its value is 60.

What about the “Plant response rating, Morningglory” value (pitted morningglory; 16 g ai/ha, preemergence) of the same compound?
Its value is 0.

What about the “Morningglory plant response rating” value (pitted morningglory; 62 g ai/ha, Preemergence) of the same compound?
The value was 0.

What about the “Morningglory plant response rating” value (pitted morningglory; 125 g ai/ha, preemergence) of the same compound?
The value was 35.

What about the “Plant response rating, Morningglory” value (pitted morningglory; Preemergence, 31 g ai/ha) of the same compound?
Its value is 0.

And the “Plant response rating, Ragweed” value (common ragweed; 16 g ai/ha, preemergence)?
The value was 0.

What about the “Ragweed plant response rating” value (common ragweed; 125 g ai/ha, preemergence) of the same compound?
Its value is 85.

What about the “Plant response rating, Ragweed” value (common ragweed; Preemergence, 62 g ai/ha) of the same compound?
The value was 50.

What about the “Plant response rating, Ragweed” value (common ragweed; Preemergence, 31 g ai/ha) of the same compound?
Its value is 30.

What about the “Plant response rating, Black Mustard” value (mustard; 16 g ai/ha, preemergence) of the same compound?
The value was 0.

And the “Black Mustard plant response rating” value (mustard; 62 g ai/ha, Preemergence)?
Its value is 80.

And the “Black Mustard plant response rating” value (mustard; 125 g ai/ha, preemergence)?
Its value is 90.

And the “Plant response rating, Black Mustard” value (mustard; Preemergence, 31 g ai/ha)?
Its value is 0.

And the “Plant response rating, Guineagrass” value (guineagrass; 16 g ai/ha, preemergence)?
The value was 80.

What about the “Guineagrass plant response rating” value (guineagrass; 62 g ai/ha, Preemergence) of the same compound?
Its value is 100.

And the “Guineagrass plant response rating” value (guineagrass; 125 g ai/ha, preemergence)?
Its value is 100.

What about the “Plant response rating, Guineagrass” value (guineagrass; Preemergence, 31 g ai/ha) of the same compound?
Its value is 98.

What about the “Plant response rating, Barnyardgrass” value (barnyardgrass; 16 g ai/ha, preemergence, scale 0 to 100 (0 no effect, 100 complete control)) of the same compound?
Its value is 65.

What about the “Barnyardgrass plant response rating” value (barnyardgrass; 62 g ai/ha, Preemergence, scale 0 to 100) of the same compound?
The value was 100.

What about the “Barnyardgrass plant response rating” value (barnyardgrass; 125 g ai/ha, preemergence, scale 0 to 100) of the same compound?
The value was 100.

And the “Plant response rating, Barnyardgrass” value (barnyardgrass; Preemergence, 31 g ai/ha, scale 0 to 100)?
Its value is 80.

What about the “Plant response rating, Sandbur” value (southern sandbur; 16 g ai/ha, preemergence) of the same compound?
The value was 25.

What about the “Sandbur plant response rating” value (southern sandbur; 125 g ai/ha, preemergence) of the same compound?
Its value is 100.

What about the “Plant response rating, Sandbur” value (southern sandbur; Preemergence, 62 g ai/ha) of the same compound?
Its value is 80.

What about the “Plant response rating, Sandbur” value (southern sandbur; Preemergence, 31 g ai/ha) of the same compound?
Its value is 80.

What about the “Plant response rating, Prickly Sida” value (prickly sida; 16 g ai/ha, preemergence) of the same compound?
Its value is 0.

What about the “Prickly Sida plant response rating” value (prickly sida; 62 g ai/ha, Preemergence) of the same compound?
The value was 30.

And the “Prickly Sida plant response rating” value (prickly sida; 125 g ai/ha, preemergence)?
Its value is 75.

And the “Plant response rating, Prickly Sida” value (prickly sida; Preemergence, 31 g ai/ha)?
The value was 0.

What about the “Plant response rating, Ryegrass, Italian” value (Italian ryegrass; 16 g ai/ha, preemergence) of the same compound?
The value was 0.

What about the “Ryegrass, Italian plant response rating” value (Italian ryegrass; 125 g ai/ha, preemergence) of the same compound?
Its value is 90.

What about the “Plant response rating, Ryegrass, Italian” value (Italian ryegrass; Preemergence, 62 g ai/ha) of the same compound?
Its value is 75.

And the “Plant response rating, Ryegrass, Italian” value (Italian ryegrass; Preemergence, 31 g ai/ha)?
Its value is 20.

What about the “Plant response rating, Purslane” value (common purslane; 16 g ai/ha, preemergence) of the same compound?
The value was 0.

And the “Purslane plant response rating” value (common purslane; 62 g ai/ha, Preemergence)?
Its value is 30.

And the “Purslane plant response rating” value (common purslane; 125 g ai/ha, preemergence)?
The value was 60.

And the “Plant response rating, Purslane” value (common purslane; Preemergence, 31 g ai/ha)?
Its value is 10.

And the “Plant response rating, Chickweed” value (common chickweed; 16 g ai/ha, preemergence)?
Its value is 65.

What about the “Chickweed plant response rating” value (common chickweed; 62 g ai/ha, Preemergence) of the same compound?
The value was 100.

And the “Chickweed plant response rating” value (common chickweed; 125 g ai/ha, preemergence)?
Its value is 100.

And the “Plant response rating, Chickweed” value (common chickweed; Preemergence, 31 g ai/ha)?
The value was 100.

What about the “Plant response rating, Bluegrass” value (annual bluegrass; 16 g ai/ha, preemergence) of the same compound?
Its value is 0.

And the “Bluegrass plant response rating” value (annual bluegrass; 62 g ai/ha, Preemergence)?
The value was 90.

What about the “Bluegrass plant response rating” value (annual bluegrass; 125 g ai/ha, preemergence) of the same compound?
Its value is 90.

What about the “Plant response rating, Bluegrass” value (annual bluegrass; Preemergence, 31 g ai/ha) of the same compound?
The value was 0.

And the “Plant response rating, Crabgrass, Naked” value (naked crabgrass; 16 g ai/ha, preemergence)?
The value was 30.

And the “Crabgrass, Naked plant response rating” value (naked crabgrass; 62 g ai/ha, Preemergence)?
Its value is 100.

What about the “Crabgrass, Naked plant response rating” value (naked crabgrass; 125 g ai/ha, preemergence) of the same compound?
Its value is 100.

And the “Plant response rating, Crabgrass, Naked” value (naked crabgrass; Preemergence, 31 g ai/ha)?
Its value is 40.

And the “Plant response rating, Quackgrass” value (quackgrass; 16 g ai/ha, preemergence)?
The value was 40.

What about the “Quackgrass plant response rating” value (quackgrass; 62 g ai/ha, Preemergence) of the same compound?
The value was 95.

What about the “Quackgrass plant response rating” value (quackgrass; 125 g ai/ha, preemergence) of the same compound?
Its value is 95.

What about the “Plant response rating, Quackgrass” value (quackgrass; Preemergence, 31 g ai/ha) of the same compound?
The value was 75.

What about the “Plant response rating, Horseweed” value (Canada horseweed; 16 g ai/ha, preemergence) of the same compound?
Its value is 0.

And the “Horseweed plant response rating” value (Canada horseweed; 62 g ai/ha, Preemergence)?
Its value is 50.

What about the “Horseweed plant response rating” value (Canada horseweed; 125 g ai/ha, preemergence) of the same compound?
Its value is 100.

What about the “Plant response rating, Horseweed” value (Canada horseweed; Preemergence, 31 g ai/ha) of the same compound?
The value was 0.

And the “Plant response rating, Field Bindweed” value (field bindweed; 16 g ai/ha, preemergence)?
Its value is 0.

What about the “Field Bindweed plant response rating” value (field bindweed; 62 g ai/ha, Preemergence) of the same compound?
The value was 0.

What about the “Field Bindweed plant response rating” value (field bindweed; 125 g ai/ha, preemergence) of the same compound?
Its value is 40.

And the “Plant response rating, Field Bindweed” value (field bindweed; Preemergence, 31 g ai/ha)?
The value was 0.

And the “Plant response rating, Mallow” value (common mallow; 16 g ai/ha, preemergence)?
The value was 0.

What about the “Mallow plant response rating” value (common mallow; 62 g ai/ha, Preemergence) of the same compound?
Its value is 75.

What about the “Mallow plant response rating” value (common mallow; 125 g ai/ha, preemergence) of the same compound?
Its value is 100.

What about the “Plant response rating, Mallow” value (common mallow; Preemergence, 31 g ai/ha) of the same compound?
The value was 35.
